The values that follow come from the Deep4Chem optical property database.

The nature of the data set: photoluminescence quantum yield (fraction); solvent given as SMILES.

SMILES strings stand for the structures.

Consider `O=C1OC(=O)c2cc(Oc3ccccc3)c3c4ccc5c6c(cc(Oc7ccccc7)c(c7ccc1c2c73)c64)C(=O)OC5=O`, for which the photoluminescence quantum yield is 0.5 (in C1CCOC1), 0.2 (in CN1CCCC1=O) and 0.6 (in CN(C)C=O).

As for `O=c1cc2c(-c3c(O)c4cccc5ccc6oc(=O)cc3c6c54)c(O)c3cccc4ccc(o1)c2c43`, where the note is “in CC1CCCO1”, the photoluminescence quantum yield turned out to be 0.13.

Take `O=[N+]([O-])c1ccc(-c2nc(/C=C/c3ccc(Cl)cc3)c(/C=C/c3ccc(Cl)cc3)[nH]2)cc1`: the photoluminescence quantum yield (in ClCCl) stood at 0.

In turn, `N#Cc1ccc(-n2c3ccccc3c3c2c2ccccc2n3-c2ccccc2)cc1` gave a photoluminescence quantum yield (in Cc1ccccc1) of 0.143.

As to `Cc1cc(C)n2c1C=C1c3ccccc3C(c3c[nH]c4ccccc34)=[N+]1[B-]2(F)F`, the photoluminescence quantum yield stood at 0.97 (in C1CCOC1); 0.96 (in CC#N); 0.99 (in CCCCCC); 0.96 (in CO); 0.96 (in Cc1ccccc1); 0.98 (in ClCCl).

With `CC/[NH+]=c1\cc2oc3cc(NCCC(=O)O)c4ccccc4c3nc-2cc1C`, the photoluminescence quantum yield runs as follows: (in CCO) 0.44; (in O) 0.28.

Regarding `CCCCCCCN1C(=CC2=C([O-])C(=Cc3sc4ccccc4[n+]3CCCCCCC)C2=C(C#N)C#N)Sc2ccccc21`, the photoluminescence quantum yield runs as follows: (in C1COCCO1) 0.09; (in CCO) 0.14; (in CN(C)C=O) 0.14; (in ClC(Cl)Cl) 0.13.

Under “in CC#N”, `N#C/C(=C\c1ccc(Cl)cc1)c1nc(-c2ccccc2)c(-c2ccccc2)s1` registered a photoluminescence quantum yield of 0.004.

Consider `CCn1c(-c2ccc(-c3ccc(-c4ccc(-c5n(CC)c6cc(C)ccc6[n+]5CC)cc4)cc3)cc2)[n+](CC)c2ccc(C)cc21`, for which the photoluminescence quantum yield (in O) was determined as 0.72.

Turning to `Cc1ccc(O)c(-c2nc(C)c3n2CCCC3)c1`, the photoluminescence quantum yield (in ClCCl) amounted to 0.43.

On to `COc1ccc(C#CC2=C3CCc4ccccc4C3=[O+][B-](F)(F)O2)cc1`, for which the photoluminescence quantum yield (in ClCCl) was 0.145.

Consider `CCOC(=O)c1ccccc1-c1c2ccc(=[N+](CC)CC)cc-2oc2c1c(=O)oc1cc3c(cc12)CCCN3C`, for which the photoluminescence quantum yield (in CCO) stood at 0.04 and the photoluminescence quantum yield (in ClC(Cl)Cl) came to 0.33.

Compound `Clc1ccc(-c2nc(-c3ccccc3)sc2N(c2ccccc2)c2ccccc2)cc1` displayed a photoluminescence quantum yield (in ClC(Cl)Cl) of 0.33.

`COCCC1=Cc2nc1ccc1[nH]c(cc1CCOC)c1nc(c(OC)cc3[nH]c2cc3CCOC)C(CCOC)=C1`: for the setting “in Cc1ccccc1”, the photoluminescence quantum yield is 0.18.

Regarding `CN(C)c1ccc(/C=C/c2ccc(-c3cc(-c4ccccn4)nc(-c4ccccn4)c3)cc2)cc1`, the photoluminescence quantum yield reads like this: (in C1CCOC1) 0.54; (in C1COCCO1) 0.48; (in CC#N) 0.41; (in CCO) 0.24; (in ClCCl) 0.62.

`c1cc2c3c(cccc3c1)C(N1CCOCCNCCOCCOCC1)=N2` showed a photoluminescence quantum yield (in CC#N) of 0.0046.

With `CN(C)c1ccc(/C=C/C=C/c2ccc(C#N)cc2)cc1`, the photoluminescence quantum yield turned out to be 0.098 (in C1CCOC1); 0.223 (in CC#N); 0.125 (in CCCC#N); 0.059 (in CCCCCC); 0.068 (in CCCCOCCCC); 0.187 (in CCO). Besides, under “in CCOCC”, the photoluminescence quantum yield is 0.085.

As for `COc1cc2c(cc1-c1ccc(C(F)(F)F)cc1)Cc1c3c(c4c(c1-2)-c1cc(OC)c(-c2ccc(C(F)(F)F)cc2)cc1C4)C(=O)N(CCC(C)C)C3=O`, the photoluminescence quantum yield (in C1CCOC1) came out at 0.45.

For `CC[C@H](C)COc1ccc(C2=C3C(C)=C(c4ccc5ccc6cccc7ccc4c5c67)C(C)=[N+]3[B-](F)(F)n3c(C)c(-c4ccc5ccc6cccc7ccc4c5c67)c(C)c32)cc1`, the photoluminescence quantum yield (in ClCCl) is 0.5.

In turn, `CON(OC)c1cc2c3cc(-c4c(C)cc(C)cc4C)cc4c5cc(-c6c(C)cc(C)cc6C)cc6c7cc(B(c8c(C)cc(C)cc8C)c8c(C)cc(C)cc8C)cc8c9cc(-c%10c(C)cc(C)cc%10C)cc%10c%11cc(-c%12c(C)cc(C)cc%12C)cc%12c(c1)c2c1c(c43)c(c65)c(c78)c(c9%10)c1c%11%12` had a photoluminescence quantum yield (in C1CCOC1) of 0.46; a photoluminescence quantum yield (in CC(C)=O) of 0.05; a photoluminescence quantum yield (in CCCCCC) of 0.22; a photoluminescence quantum yield (in Cc1ccccc1) of 0.42; a photoluminescence quantum yield (in ClC(Cl)Cl) of 0.46; a photoluminescence quantum yield (in ClCCl) of 0.56.

`CCCCCCCCCCCCN1C(=O)c2c(c3ccc4cc(-c5cccs5)c(OC)cc4c3c3c2ccc2cc(-c4cccs4)c(OC)cc23)C1=O`: the photoluminescence quantum yield (in ClCCl) was found to be 0.216.

Under “in C1CCCCC1”, `Cc1cc(C)c(B2c3cc(C(C)(C)C)cc4c5ccccc5c5c6ccccc6c6cc(C(C)(C)C)cc2c6c5c34)c(C)c1` displayed a photoluminescence quantum yield of 0.7.

`COc1cc(C(=O)O)ccc1O` showed a photoluminescence quantum yield (in O) of 0.03.

In the case of `CCNc1ccc2c(c1)C(C)(C)C(=O)C=C2`, for the setting “in O”, the photoluminescence quantum yield was 0.18.

Turning to `COC(=O)c1nc(-c2cccc3ccccc23)oc1C`, the photoluminescence quantum yield is, setting by setting: (in C1CCCCC1) 0.58; (in CC#N) 0.51; (in CCO) 0.5; (in CCOC(C)=O) 0.54.

Under “in O”, `c1ccc2[nH]ccc2c1` showed a photoluminescence quantum yield of 0.93.

Regarding `O=C(O)c1c2ccccc2c(C(=O)O)c2ccccc12`, the photoluminescence quantum yield by setting is: (in C1CCOC1) 0.66; (in CN(C)C=O) 0.4.

On to `CCCCCCCCCCOc1cc(OCCCCCCCCCC)cc(C2=C3C(C)=CC(/C=C/c4ccc(OC)cc4)=[N+]3[B-](F)(F)n3c(/C=C/c4ccc(OC)cc4)cc(C)c32)c1`, for which the photoluminescence quantum yield (in ClC(Cl)Cl) was 0.37.

Consider `CCNc1cc2c(cc1C)C(c1ccccc1C(=O)O)=C1CCCC(/C=C/C3=[N+](C)c4ccc5ccccc5c4C3(C)C)=C1O2`, for which the photoluminescence quantum yield reads like this: (in CC#N) 0.22; (in CCO) 0.34; (in CO) 0.33; (in ClC(Cl)Cl) 0.48.

As to `CCC1=C(C)C2=Cc3ccccc3B(O)N2C1=O`, the photoluminescence quantum yield runs as follows: (in CC#N) 0.42; (in CCCCCC) 0.25; (in CO) 0.12; (in CS(C)=O) 0.19; (in ClC(Cl)Cl) 0.36.

`c1cc2c3c(cccc3c1)-c1cc3c(ccc4ccccc43)cc1-2` showed a photoluminescence quantum yield (in CCCCCCC) of 0.65.

In turn, `c1ccc(C2(c3ccccc3)c3ccc4ccc5ccccc5c4c3-c3c2ccc2ccc4ccccc4c32)cc1` gave a photoluminescence quantum yield (in ClCCl) of 0.4.

`Cc1oc2c(Cl)cc3c(C)cc(=O)oc3c2c1C`: the photoluminescence quantum yield runs as follows: (in C1CCCCC1) 0.0005; (in C1COCCO1) 0.003; (in CC#N) 0.007; (in CCO) 0.02; (in OCC(F)(F)F) 0.04.

`CCCC1(CCC)c2cc(-c3ccc4c(c3)C(CCC)(CCC)c3cc(C(C)(C)CC)ccc3-4)ccc2-c2ccc(-c3ccc4c(c3)C(CCC)(CCC)c3cc(C(C)(C)CC)ccc3-4)cc21` had a photoluminescence quantum yield (in C1CCCCC1) of 0.93.

Where the note is “in CCO”, `O=Cc1ccc(-c2ccc(C3=CCC(c4ccccc4)CC3)s2)s1` (stereo not drawn) gave a photoluminescence quantum yield of 0.29.

Regarding `CCOC(=O)C1=C(N)n2c(=O)c3ccccc3c(=O)n2C1c1ccccc1` (stereo not drawn), under “in CS(C)=O”, the photoluminescence quantum yield turned out to be 0.136.
